Test results published in patent US20170253607A1, “LONG-ACTING HIV PROTEASE INHIBITOR” (Shionogi & Co., Ltd., priority 2014, published 2017).

What follows are compounds tested against HIV-1 PR (Human immunodeficiency virus type 1 group M subtype B, UniProt P04585) (assay: HIV-protease inhibitory activity assay (FRET peptide substrate)). Conditions: Test Example 1.
Assay type: biochemical
How it was run: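 Compounds were preincubated with HIV-1 PR (0.83 ng) at room temperature in pH 4.8 NaAc buffer (0.5 M NaCl, EDTA, DTT, Tween 20), then HiLyte Fluor 488/QXL 520 FRET peptide (2 μmol/L final) was added for 60 min. Fluorescence was read at 485/535 nm, and IC50 was fitted by four-parameter logistic regression.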

Row | Structure (SMILES) | IC50
1 | COc1ccc(S(=O)(=O)N(CC2CCCC2)CC(O)C(Cc2ccc(OCc3ccccc3Cn3nc4c(c3C(=O)O)CC(C)(C)CC4)cc2)NC(=O)OC2COC3(C)OCCC23)cc1 (stereo not drawn) [Compound I-216] | 1.93 nM
2 | COc1ccc(S(=O)(=O)N(CC(C)C)CC(O)C(Cc2ccc(-c3ccc(Cn4nc5c(c4C(=O)O)CC(C)(C)CC5)cc3)cc2)NC(=O)OC2COC3(C)OCCC23)cc1 (stereo not drawn) [Compound I-217] | 1.95 nM
3 | COc1ccc(S(=O)(=O)N(CC(C)C)CC(O)C(Cc2ccc(C(=O)N(C)Cc3ccccc3-c3sc4c(c3C(=O)O)CC(C)(C)CC4)cc2)NC(=O)OC2COC3(C)OCCC23)cc1 (stereo not drawn) [Compound I-219] | 2.06 nM
4 | COc1ccc(S(=O)(=O)N(CC(C)C)CC(O)C(Cc2ccc(N(C)C(=O)Nc3sc4c(c3C(=O)O)CC(C)(C)CC4)cc2)NC(=O)OC2COC3(C)OCCC23)cc1 (stereo not drawn) [Compound I-220] | 2.08 nM
5 | COc1ccc(S(=O)(=O)N(CC2CCCC2)CC(O)C(Cc2ccc(OCc3ccccc3Cn3nc(C(=O)O)c4c3CCC(C)(C)C4)cc2)NC(=O)OC2COC3(C)OCCC23)cc1 (stereo not drawn) [Compound I-221] | 2.11 nM
6 | COc1ccc(S(=O)(=O)N(CC(C)C)CC(O)C(Cc2ccc(N3Cc4ccc(-c5sc6c(c5C(=O)O)CC(C)(C)CC6)cc4C3)cc2)NC(=O)OC2COC3(C)OCCC23)cc1 (stereo not drawn) [Compound I-222] | 2.9 nM
7 | COc1ccc(S(=O)(=O)N(CC(C)C)CC(O)C(Cc2ccc(N3CC4CN(C(=O)c5sc6c(c5C(=O)O)CC(C)(C)CC6)CC4C3)cc2)NC(=O)OC2COC3(C)OCCC23)cc1 (stereo not drawn) [Compound I-223] | 1.97 nM
8 | COc1ccc(S(=O)(=O)N(CC(C)C)CC(O)C(Cc2ccc(N3CCN(C(=O)c4sc5c(c4C(=O)O)CC(C)(C)CC5)CC3)cc2)NC(=O)OC2COC3(C)OCCC23)cc1 (stereo not drawn) [Compound I-224] | 1.96 nM
9 | COc1ccc(S(=O)(=O)N(CC(C)C)CC(O)C(Cc2ccc(N3CCc4nc(-c5sc6c(c5C(=O)O)CC(C)(C)CC6)sc4C3)cc2)NC(=O)OC2COC3(C)OCCC23)cc1 (stereo not drawn) [Compound I-225] | 2.31 nM
10 | COc1ccc(S(=O)(=O)N(CC(C)C)CC(O)C(Cc2ccc(N3CCc4c(cccc4-c4sc5c(c4C(=O)O)CC(C)(C)CC5)C3)cc2)NC(=O)OC2COC3(C)OCCC23)cc1 (stereo not drawn) [Compound I-226] | 4.48 nM
11 | COc1ccc(S(=O)(=O)N(CC(C)C)CC(O)C(Cc2ccc(N3CCC(c4sc5c(c4C(=O)O)CC(C)(C)CC5)CC3)cc2)NC(=O)OC2COC3(C)OCCC23)cc1 (stereo not drawn) [Compound I-227] | 3.26 nM
12 | COc1ccc(S(=O)(=O)N(CC(C)C)CC(O)C(Cc2ccc(OCc3ccccc3NC(=O)Nc3sc4c(c3C(=O)O)CC(C)(C)CC4)cc2)NC(=O)OC2COC3(C)OCCC23)cc1 (stereo not drawn) [Compound I-229] | 3.7 nM
13 | COc1ccc(S(=O)(=O)N(CC(C)C)CC(O)C(Cc2ccc(N3CCN(c4ccc(C#N)cc4-c4sc5c(c4C(=O)O)CC(C)(C)CC5)CC3)cc2)NC(=O)OC2COC3(C)OCCC23)cc1 (stereo not drawn) [Compound I-232] | 4.1 nM
14 | COc1ccc(S(=O)(=O)N(CC(C)C)CC(O)C(Cc2ccc(N3CC4CN(c5ccc(C#N)cc5-c5sc6c(c5C(=O)O)CC(C)(C)CC6)CC4C3)cc2)NC(=O)OC2COC3(C)OCCC23)cc1 (stereo not drawn) [Compound I-233] | 6.22 nM
15 | COc1ccc(S(=O)(=O)N(CC(C)C)CC(O)C(Cc2ccc(N(C)C3CCN(c4ccccc4-c4sc5c(c4C(=O)O)CC(C)(C)CC5)C3)cc2)NC(=O)OC2COC3(C)OCCC23)cc1 (stereo not drawn) [Compound I-239] | 2.74 nM
16 | COc1ccc(S(=O)(=O)N(CC(C)C)CC(O)C(Cc2ccc(OC3CCN(C(=O)Nc4ccc(Cl)cc4-c4sc5c(c4C(=O)O)CC(C)(C)CC5)C3)cc2)NC(=O)OC2COC3(C)OCCC23)cc1 (stereo not drawn) [Compound I-244] | 2.01 nM
17 | COc1ccc(S(=O)(=O)N(CC(C)C)CC(O)C(Cc2ccc(OC3CCN(C(=O)c4sc5c(c4C(=O)O)CC(C)(C)CC5)C3)cc2)NC(=O)OC2COC3(C)OCCC23)cc1 (stereo not drawn) [Compound I-245] | 2.01 nM

Row | Structure (SMILES) | IC50
18 | COc1ccc(S(=O)(=O)N(CC(C)C)C[C@@H](O)[C@H](Cc2ccc(NC[C@@H]3CCCC[C@@H]3c3sc4c(c3C(=O)O)CC(C)(C)CC4)cc2)NC(=O)O[C@H]2CO[C@@]3(C)OCC[C@@H]23)cc1 [Compound I-246] | 2.07 nM
19 | COc1ccc(S(=O)(=O)N(CC(C)C)CC(O)C(Cc2ccc(CN(C)c3ccccc3-c3sc4c(c3C(=O)O)CC(C)(C)CC4)cc2)NC(=O)OC2COC3(C)OCCC23)cc1 (stereo not drawn) [Compound I-249] | 2.26 nM
20 | COc1ccc(S(=O)(=O)N(CC(C)C)CC(O)C(Cc2ccc(CN(C)Cc3ccccc3-c3sc4c(c3C(=O)O)CC(C)(C)CC4)cc2)NC(=O)OC2COC3(C)OCCC23)cc1 (stereo not drawn) [Compound I-250] | 2.2 nM
21 | COc1ccc(S(=O)(=O)N(CC(C)C)CC(O)C(Cc2ccc(OCc3ccccc3-c3ncc4c(c3C(=O)O)CC(C)(C)CC4)cc2)NC(=O)OC2COC3(C)OCCC23)cc1 (stereo not drawn) [Compound I-251] | 2.3 nM
22 | COc1ccc(S(=O)(=O)N(CC(C)C)CC(O)C(Cc2ccc(NCc3cccc(-c4sc5c(c4C(=O)O)CC(C)(C)CC5)c3)cc2)NC(=O)OC2COC3(C)OCCC23)cc1 (stereo not drawn) [Compound I-254] | 2.64 nM
23 | COc1ccc(S(=O)(=O)N(CC(C)C)CC(O)C(Cc2ccc(OCCN(C)c3ccc(C#N)cc3-c3sc4c(c3C(=O)O)CC(C)(C)CC4)cc2)NC(=O)OC2COC3(C)OCCC23)cc1 (stereo not drawn) [Compound I-257] | 4.98 nM
24 | COc1ccc(S(=O)(=O)N(CC(C)C)CC(O)C(Cc2ccc(OCCNc3ccc(C#N)cc3-c3sc4c(c3C(=O)O)CC(C)(C)CC4)cc2)NC(=O)OC2COC3(C)OCCC23)cc1 (stereo not drawn) [Compound I-258] | 5.23 nM
25 | COc1ccc(S(=O)(=O)N(CC(C)C)CC(O)C(Cc2ccc(OCC3CCCCC3Nc3ccc(C#N)cc3-c3sc4c(c3C(=O)O)CC(C)(C)CC4)cc2)NC(=O)OC2COC3(C)OCCC23)cc1 (stereo not drawn) [Compound I-259] | 10.9 nM
26 | COc1ccc(S(=O)(=O)N(CC(C)C)CC(O)C(Cc2ccc(C(=O)NCc3ccccc3-c3sc4c(c3C(=O)O)CC(C)(C)CC4)cc2)NC(=O)OC2COC3(C)OCCC23)cc1 (stereo not drawn) [Compound I-263] | 3.41 nM
27 | COc1ccc(S(=O)(=O)N(CC(C)C)CC(O)C(Cc2ccc(CN(C)c3cccc(-c4sc5c(c4C(=O)O)CC(C)(C)CC5)c3)cc2)NC(=O)OC2COC3(C)OCCC23)cc1 (stereo not drawn) [Compound I-264] | 3.53 nM
28 | COc1ccc(S(=O)(=O)N(CC(C)C)CC(O)C(Cc2ccc(CN(C)Cc3cccc(-c4sc5c(c4C(=O)O)CC(C)(C)CC5)c3)cc2)NC(=O)OC2COC3(C)OCCC23)cc1 (stereo not drawn) [Compound I-266] | 2.61 nM
29 | COc1ccc(S(=O)(=O)N(CC(C)C)CC(O)C(Cc2ccc(N(C)C(=O)Nc3ccccc3-c3sc4c(c3C(=O)O)CC(C)(C)CC4)cc2)NC(=O)OC2COC3(C)OCCC23)cc1 (stereo not drawn) [Compound I-269] | 3.41 nM
30 | COc1ccc(S(=O)(=O)N(CC(C)C)CC(O)C(Cc2ccc(NC(=O)Nc3ccccc3-c3sc4c(c3C(=O)O)CC(C)(C)CC4)cc2)NC(=O)OC2COC3(C)OCCC23)cc1 (stereo not drawn) [Compound I-270] | 3.38 nM
31 | COc1ccc(S(=O)(=O)N(CC(C)C)CC(O)C(Cc2ccc(NCc3ccncc3-c3sc4c(c3C(=O)O)CC(C)(C)CC4)cc2)NC(=O)OC2COC3(C)OCCC23)cc1 (stereo not drawn) [Compound I-273] | 2.25 nM
32 | COc1ccc(S(=O)(=O)N(CC(C)C)CC(O)C(Cc2ccc(NCc3occc3-c3sc4c(c3C(=O)O)CC(C)(C)CC4)cc2)NC(=O)OC2COC3(C)OCCC23)cc1 (stereo not drawn) [Compound I-276] | 2.16 nM
33 | COc1ccc(S(=O)(=O)N(CC(C)C)CC(O)C(Cc2ccc(NCc3cnc(OC)cc3-c3sc4c(c3C(=O)O)CC(C)(C)CC4)cc2)NC(=O)OC2COC3(C)OCCC23)cc1 (stereo not drawn) [Compound I-278] | 1.83 nM
